Experimental data reported in ChEMBL document CHEMBL6083260, “Dizocilpine derivatives as neuroprotective NMDA receptor antagonists without psychomimetic side effects” (Eur J Med Chem, 2024).
Calls of active or inactive are those of the source. The rule behind the calls is not given here.

Legend:
[1] = target: T1, Glutamate NMDA receptor; GRIN1/GRIN2A (Homo sapiens, UniProt Q05586+Q12879); test: Antagonist activity at human GluN1/GluN2A receptor expressed in HEK293 cells assessed as inhibition of L-glutamate induced response at 3 uM at -60 mV membrane potential by patch clamp electrophysiology analysis; format: cell-based
[2] = Cytotoxicity against CHO-K1 cells assessed as reduction in cell viability incubated for 24 hrs by MTT assay; format: toxicity, cell-based; conditions: Chinese hamster (Cricetulus griseus)
[3] = target: T2, Glutamate NMDA receptor; GRIN1/GRIN2B (Homo sapiens, UniProt Q05586+Q13224); test: Antagonist activity at human GluN1/GluN2B receptor expressed in HEK293 cells assessed as inhibition of L-glutamate induced response at 3 uM at -60 mV membrane potential by patch clamp electrophysiology analysis; format: cell-based
[4] = target: T1, Glutamate NMDA receptor; GRIN1/GRIN2A; test: Antagonist activity at human GluN1/GluN2A receptor expressed in HEK293 cells assessed as inhibition of L-glutamate induced response at -40 mV membrane potential by patch clamp electrophysiology analysis; format: cell-based
[5] = target: T2, Glutamate NMDA receptor; GRIN1/GRIN2B; test: Antagonist activity at human GluN1/GluN2B receptor expressed in HEK293 cells assessed as inhibition of L-glutamate induced response at -40 mV membrane potential by patch clamp electrophysiology analysis; format: cell-based
[6] = Toxicity in male Wistar rat assessed as decrease respiration at 20 mg/kg, ip; format: organism-based; conditions: in vivo
[7] = target: T1, Glutamate NMDA receptor; GRIN1/GRIN2A; test: Antagonist activity at human GluN1/GluN2A receptor expressed in HEK293 cells assessed as inhibition of L-glutamate/glycine-induced steady state conditions of the current response at holding - 60 mV potential by measuring onset time constant at 1 to 100 uM incubated for 2 min followed by compound washout measured by patch clamp electrophysiology analysis; format: cell-based; conditions: filed as antagonist, dose 1-100 µM
[8] = target: T2, Glutamate NMDA receptor; GRIN1/GRIN2B; test: Antagonist activity at human GluN1/GluN2B receptor expressed in HEK293 cells assessed as inhibition of L-glutamate/glycine-induced steady state conditions of the current response at holding - 60 mV potential by measuring onset time constant at 1 to 100 uM incubated for 2 min followed by compound washout measured by patch clamp electrophysiology analysis; format: cell-based; conditions: filed as antagonist, dose 1-100 µM
Rattus norvegicus = test: In vivo neuroprotective activity in NMDA-induced hippocampal lesion male Wistar rat model assessed as decrease in damage score at 30 uM; format: functional, organism-based
[9] = Toxicity in male Wistar rat assessed as loss of activity at 20 mg/kg, ip; format: organism-based; conditions: in vivo
[10] = Toxicity in male Wistar rat assessed as effect on pre-pulse inhibition of acoustic startle response induced deficit at 1 to 10 mg/kg, ip by prepulse inhibition test; format: organism-based; conditions: in vivo, dose 1-10 mg/kg
[11] = target: T1, Glutamate NMDA receptor; GRIN1/GRIN2A; test: Antagonist activity at human GluN1/GluN2A receptor expressed in HEK293 cells assessed as inhibition of offset time constant at -60 mV membrane potential by patch clamp electrophysiology analysis relative to control; format: cell-based; conditions: filed as antagonist, dose 1.0 µM
[12] = Toxicity in male Wistar rat assessed as locomotion at 1 to 10 mg/kg, ip incubated for 15 min by open field test; format: organism-based; conditions: in vivo, 0.25 h, dose 1-10 mg/kg
[13] = Toxicity in male Wistar rat assessed as no observed adverse effect level (NOAEL) at 10 mg/kg, ip; format: organism-based; conditions: in vivo
[14] = target: T1, Glutamate NMDA receptor; GRIN1/GRIN2A; test: Antagonist activity at human GluN1/GluN2A receptor expressed in HEK293 cells assessed as inhibition of […] response at 1 uM onset measured by patch clamp electrophysiology analysis; format: cell-based; conditions: filed as antagonist
[15] = target: T1, Glutamate NMDA receptor; GRIN1/GRIN2A; test: Antagonist activity at human GluN1/GluN2A receptor expressed in HEK293 cells assessed as inhibition of L-glutamate induced response at -60 mV membrane potential by patch clamp electrophysiology analysis; format: cell-based
[16] = target: T2, Glutamate NMDA receptor; GRIN1/GRIN2B; test: Antagonist activity at human GluN1/GluN2B receptor expressed in HEK293 cells assessed as inhibition of L-glutamate induced response at -60 mV membrane potential by patch clamp electrophysiology analysis; format: cell-based
[17] = Inhibition of human recombinant AChE measured by Ellman's method
[18] = Toxicity in male Wistar rat assessed as effect on pre-pulse inhibition of acoustic startle response induced deficit at 0.3 mg/kg, ip mg/kg by prepulse inhibition test; format: organism-based; conditions: in vivo
[19] = Toxicity in male Wistar rat assessed as hyperlocomotion at 0.2 mg/kg, ip incubated for 10 min by open field test; format: organism-based; conditions: in vivo
[20] = target: T1, Glutamate NMDA receptor; GRIN1/GRIN2A; test: Antagonist activity at human GluN1/GluN2A receptor expressed in HEK293 cells assessed as inhibition of L-glutamate/glycine-induced steady state conditions of the current response at holding - 60 mV potential by measuring offset time constant at 1 to 100 uM incubated for 2 min followed by compound washout measured by patch clamp electrophysiology analysis; format: cell-based; conditions: filed as antagonist, dose 1-100 µM
[21] = target: T2, Glutamate NMDA receptor; GRIN1/GRIN2B; test: Antagonist activity at human GluN1/GluN2B receptor expressed in HEK293 cells assessed as inhibition of L-glutamate/glycine-induced steady state conditions of the current response at holding - 60 mV potential by measuring offset time constant at 1 to 100 uM incubated for 2 min followed by compound washout measured by patch clamp electrophysiology analysis; format: cell-based; conditions: filed as antagonist, dose 1-100 µM

SMILES	inhibition [1]	IC50 at 24 h [2]	inhibition ([3]; filed as antagonist)	inhibition ([1]; filed as antagonist)	further results
C1=Cc2ccccc2C(N2CCCCC2)c2ccccc21	29.9%	381 µM	58.4%		
Cl.OCCNC1c2ccccc2CCc2ccccc21		720 µM	49.7%	48%	IC50 [4]: 276 µM; IC50 [5]: 215 µM; Activity [6]: Toxic; Activity [7]: Active; Activity [8]: Active; Activity (Rattus norvegicus): Active; Activity [9]: Toxic; Activity [10]: Toxic; inhibition [11]: 99%; Activity [12]: Non-toxic; Activity [13]: Non-toxic; TIME [14]: 0.000112 h
CC(C)NC1c2ccccc2C=Cc2ccccc21		251 µM	76%	75.6%	
c1ccc2c(c1)CCc1ccccc1C2N1CCCCC1	5.4%	73.8 µM			inhibition [3]: 5.2%
CNC1(c2ccccc2Cl)CCCCC1=O (stereo not drawn) [KETAMINE]					IC50 [4]: 53.3 µM; IC50 [5]: 15.2 µM; IC50 [15]: 0.5 µM; IC50 [16]: 0.51 µM
OCCNC1c2ccccc2C=Cc2ccccc21	38.2%	333 µM	48.8%		
CCNC1c2ccccc2C=Cc2ccccc21	39.9%	498 µM	59.9%		
C1=Cc2ccccc2C(N2CCCC2)c2ccccc21		> 900 µM	85.5%	48.6%	
CCNC1c2ccccc2CCc2ccccc21	34%	364 µM	51.8%		
COCCNC1c2ccccc2CCc2ccccc21	34.9%	385 µM	66.6%		
CCN1CCN(C2c3ccccc3CCc3ccccc32)CC1	7.64%	147 µM			inhibition [3]: 5.22%
C1=Cc2ccccc2C(NC2CCCCC2)c2ccccc21		81.3 µM	92.4%	92.1%	IC50 [17]: 8.5 µM
c1ccc2c(c1)CCc1ccccc1C2N1CCOCC1	6.78%	95.2 µM			inhibition [3]: 3.43%
CNC1c2ccccc2C=Cc2ccccc21		299 µM	68.9%	54.3%	
CC(C)CNC1c2ccccc2CCc2ccccc21		92.4 µM	91.6%	76.8%	
CCCCNC1c2ccccc2C=Cc2ccccc21		101 µM	79.2%	81.1%	
COCCNC1c2ccccc2C=Cc2ccccc21	35.6%	390 µM	60%		
C[C@]12N[C@H](Cc3ccccc31)c1ccccc12 [DIZOCILPINE]					Activity [18]: Toxic; Activity [19]: Toxic
CC(C)CNC1c2ccccc2C=Cc2ccccc21.Cl		102 µM	91.8%	93.2%	IC50 [4]: 22.4 µM; IC50 [5]: 11.7 µM; Activity [6]: Toxic; Activity [7]: Active; Activity [8]: Active; Activity [20]: Active; Compound Exhibited Slower Time Constant Offset Than 3L; Activity [21]: Active; Compound Exhibited Slower Time Constant Offset Than 3L; Activity [9]: Toxic; Activity [10]: Toxic; inhibition [11]: 99%; Activity [12]: Non-toxic; Activity [13]: Non-toxic
CNC1c2ccccc2CCc2ccccc21		410 µM	71%	82.3%	
CCCCNC1c2ccccc2CCc2ccccc21		128 µM	85.8%	76.4%	
C1=Cc2ccccc2C(NC2CC2)c2ccccc21		260 µM	57.2%	45%	
C1=Cc2ccccc2C(N2CCOCC2)c2ccccc21	31.9%	165 µM	57.6%		
c1ccc2c(c1)CCc1ccccc1C2N1CCCC1		97.7 µM	62.1%	49.8%	
c1ccc2c(c1)CCc1ccccc1C2NC1CC1		177 µM	53.6%	40.1%	
c1ccc2c(c1)CCc1ccccc1C2NC1CCCCC1		85 µM	86%	79.4%	IC50 [17]: 14.4 µM
CC(C)NC1c2ccccc2CCc2ccccc21		263 µM	76.9%	52.2%	
CN1CCN(C2c3ccccc3CCc3ccccc32)CC1	9.7%	122 µM			inhibition [3]: 9.49%
CCN(CC)C1c2ccccc2CCc2ccccc21		86.4 µM	75%	68.4%	
